# Measured values: patent US9388179B2, “N-substituted indazole sulfonamide compounds with selective activity in voltage-gated sodium channels” (Merck Sharp & Dohme Corp., priority 2012, dated 2016)
# Assays:
# [1] = target: T1, human Nav1.5 channels stably expressed in HEK 293 cells (Homo sapiens, UniProt Q14524); experiment: PatchXpress 7000 automated patch-clamp, inactivated state block; assay type: cell-based; details: PatchXpress technique
# T1 construct: expressed in transfected cells; host or cells: HEK 293
# T1 sequence (Q14524 whole entry): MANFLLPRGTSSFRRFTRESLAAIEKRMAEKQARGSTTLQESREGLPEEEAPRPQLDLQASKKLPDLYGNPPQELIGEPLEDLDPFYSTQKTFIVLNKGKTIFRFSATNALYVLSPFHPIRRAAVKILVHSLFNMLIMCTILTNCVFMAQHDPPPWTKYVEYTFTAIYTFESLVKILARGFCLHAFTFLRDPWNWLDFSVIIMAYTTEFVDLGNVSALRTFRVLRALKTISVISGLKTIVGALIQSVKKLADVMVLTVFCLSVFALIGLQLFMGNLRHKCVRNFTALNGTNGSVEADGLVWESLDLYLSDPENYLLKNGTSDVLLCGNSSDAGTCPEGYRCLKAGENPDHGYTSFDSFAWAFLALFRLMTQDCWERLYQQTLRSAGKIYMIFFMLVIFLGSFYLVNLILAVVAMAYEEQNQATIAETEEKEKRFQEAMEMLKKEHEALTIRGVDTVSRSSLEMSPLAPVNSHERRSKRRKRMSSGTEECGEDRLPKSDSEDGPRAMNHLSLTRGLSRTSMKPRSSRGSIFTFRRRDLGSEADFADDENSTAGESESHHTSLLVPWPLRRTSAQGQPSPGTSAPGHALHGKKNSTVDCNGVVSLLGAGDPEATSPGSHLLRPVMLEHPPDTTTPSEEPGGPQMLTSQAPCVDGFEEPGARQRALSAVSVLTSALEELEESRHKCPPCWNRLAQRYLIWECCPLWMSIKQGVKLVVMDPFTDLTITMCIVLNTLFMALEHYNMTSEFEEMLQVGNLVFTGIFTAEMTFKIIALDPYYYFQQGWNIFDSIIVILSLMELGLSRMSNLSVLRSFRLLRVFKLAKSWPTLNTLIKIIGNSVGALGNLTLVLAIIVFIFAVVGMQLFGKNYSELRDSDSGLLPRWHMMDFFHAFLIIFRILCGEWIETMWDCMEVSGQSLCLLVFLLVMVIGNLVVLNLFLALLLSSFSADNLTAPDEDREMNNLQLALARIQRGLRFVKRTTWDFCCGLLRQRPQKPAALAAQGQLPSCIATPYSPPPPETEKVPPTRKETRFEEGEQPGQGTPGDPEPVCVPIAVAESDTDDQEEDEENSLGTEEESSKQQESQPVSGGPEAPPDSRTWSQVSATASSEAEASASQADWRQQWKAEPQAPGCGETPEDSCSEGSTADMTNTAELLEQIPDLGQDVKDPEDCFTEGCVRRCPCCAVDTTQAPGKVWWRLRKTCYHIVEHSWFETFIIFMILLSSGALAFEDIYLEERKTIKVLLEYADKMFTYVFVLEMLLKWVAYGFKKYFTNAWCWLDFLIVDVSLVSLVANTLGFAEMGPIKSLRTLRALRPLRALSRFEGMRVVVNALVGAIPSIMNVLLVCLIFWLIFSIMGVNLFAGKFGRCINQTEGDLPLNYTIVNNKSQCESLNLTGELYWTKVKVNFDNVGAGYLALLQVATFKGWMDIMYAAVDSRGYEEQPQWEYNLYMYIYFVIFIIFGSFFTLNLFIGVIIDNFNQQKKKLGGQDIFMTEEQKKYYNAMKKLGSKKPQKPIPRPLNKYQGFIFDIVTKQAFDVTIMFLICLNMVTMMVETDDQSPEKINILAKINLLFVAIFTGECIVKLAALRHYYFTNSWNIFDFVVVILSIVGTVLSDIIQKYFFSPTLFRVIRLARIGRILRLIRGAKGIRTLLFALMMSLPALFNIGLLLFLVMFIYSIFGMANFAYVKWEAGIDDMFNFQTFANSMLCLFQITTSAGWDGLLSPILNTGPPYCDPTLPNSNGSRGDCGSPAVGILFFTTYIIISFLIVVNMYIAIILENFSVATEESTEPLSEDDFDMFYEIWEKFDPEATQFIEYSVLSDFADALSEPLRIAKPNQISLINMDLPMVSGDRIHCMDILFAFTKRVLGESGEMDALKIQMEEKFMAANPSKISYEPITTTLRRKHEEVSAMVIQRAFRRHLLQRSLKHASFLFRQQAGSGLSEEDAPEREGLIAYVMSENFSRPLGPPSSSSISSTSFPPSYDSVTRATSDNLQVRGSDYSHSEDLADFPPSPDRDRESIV
# Method: (§1) For all electrophysiology experiments, offline analysis was used to correct for current rundown and to determine percent inhibition as a function of drug concentration. IC50 values were determined by fitting to the Hill equation.
# (§2) Sodium Current Measurements on the PatchXpress 7000®:
# (§3) To measure inactivated state block of sodium channels, test compounds were characterized in an automated PatchXpress® assay (Molecular Devices) using a double-pulse protocol on human Nav1.7 and Nav1.5 channels stably expressed in HEK 293 cells. Cells were held at a potential 20 mV negative to V0.5 inact. An 8000 ms pre-pulse 7 mV positive to V0.5 inact was given followed by a hyperpolarizing 2 ms pulse to −120 mV and a 20 ms test pulse to −20 mV. Protocol was applied to cells in the absence, presence of compound and after washout. The temperature of PatchXpress instruments was maintained at 22° C. The following recording solutions were used. Internal solution (mM): 30 CsCl, 5 HEPES, 10 EGTA, 120 CsF, 5 NaF, 2 MgCl2. External solution (mM): 120 NMDG, 40 NaCl, 1 KCl, 0.5 MgCl2, 5 HEPES, 2.7 CaCl2.
# [2] = target: T2, human Nav1.7 channels stably expressed in HEK 293 cells (Homo sapiens, UniProt Q15858); experiment: as above; assay type: cell-based; details: PatchXpress technique; read-out: Nav 1.7 potency
# T2 construct: expressed in transfected cells; host or cells: HEK 293
# T2 sequence (Q15858 whole entry): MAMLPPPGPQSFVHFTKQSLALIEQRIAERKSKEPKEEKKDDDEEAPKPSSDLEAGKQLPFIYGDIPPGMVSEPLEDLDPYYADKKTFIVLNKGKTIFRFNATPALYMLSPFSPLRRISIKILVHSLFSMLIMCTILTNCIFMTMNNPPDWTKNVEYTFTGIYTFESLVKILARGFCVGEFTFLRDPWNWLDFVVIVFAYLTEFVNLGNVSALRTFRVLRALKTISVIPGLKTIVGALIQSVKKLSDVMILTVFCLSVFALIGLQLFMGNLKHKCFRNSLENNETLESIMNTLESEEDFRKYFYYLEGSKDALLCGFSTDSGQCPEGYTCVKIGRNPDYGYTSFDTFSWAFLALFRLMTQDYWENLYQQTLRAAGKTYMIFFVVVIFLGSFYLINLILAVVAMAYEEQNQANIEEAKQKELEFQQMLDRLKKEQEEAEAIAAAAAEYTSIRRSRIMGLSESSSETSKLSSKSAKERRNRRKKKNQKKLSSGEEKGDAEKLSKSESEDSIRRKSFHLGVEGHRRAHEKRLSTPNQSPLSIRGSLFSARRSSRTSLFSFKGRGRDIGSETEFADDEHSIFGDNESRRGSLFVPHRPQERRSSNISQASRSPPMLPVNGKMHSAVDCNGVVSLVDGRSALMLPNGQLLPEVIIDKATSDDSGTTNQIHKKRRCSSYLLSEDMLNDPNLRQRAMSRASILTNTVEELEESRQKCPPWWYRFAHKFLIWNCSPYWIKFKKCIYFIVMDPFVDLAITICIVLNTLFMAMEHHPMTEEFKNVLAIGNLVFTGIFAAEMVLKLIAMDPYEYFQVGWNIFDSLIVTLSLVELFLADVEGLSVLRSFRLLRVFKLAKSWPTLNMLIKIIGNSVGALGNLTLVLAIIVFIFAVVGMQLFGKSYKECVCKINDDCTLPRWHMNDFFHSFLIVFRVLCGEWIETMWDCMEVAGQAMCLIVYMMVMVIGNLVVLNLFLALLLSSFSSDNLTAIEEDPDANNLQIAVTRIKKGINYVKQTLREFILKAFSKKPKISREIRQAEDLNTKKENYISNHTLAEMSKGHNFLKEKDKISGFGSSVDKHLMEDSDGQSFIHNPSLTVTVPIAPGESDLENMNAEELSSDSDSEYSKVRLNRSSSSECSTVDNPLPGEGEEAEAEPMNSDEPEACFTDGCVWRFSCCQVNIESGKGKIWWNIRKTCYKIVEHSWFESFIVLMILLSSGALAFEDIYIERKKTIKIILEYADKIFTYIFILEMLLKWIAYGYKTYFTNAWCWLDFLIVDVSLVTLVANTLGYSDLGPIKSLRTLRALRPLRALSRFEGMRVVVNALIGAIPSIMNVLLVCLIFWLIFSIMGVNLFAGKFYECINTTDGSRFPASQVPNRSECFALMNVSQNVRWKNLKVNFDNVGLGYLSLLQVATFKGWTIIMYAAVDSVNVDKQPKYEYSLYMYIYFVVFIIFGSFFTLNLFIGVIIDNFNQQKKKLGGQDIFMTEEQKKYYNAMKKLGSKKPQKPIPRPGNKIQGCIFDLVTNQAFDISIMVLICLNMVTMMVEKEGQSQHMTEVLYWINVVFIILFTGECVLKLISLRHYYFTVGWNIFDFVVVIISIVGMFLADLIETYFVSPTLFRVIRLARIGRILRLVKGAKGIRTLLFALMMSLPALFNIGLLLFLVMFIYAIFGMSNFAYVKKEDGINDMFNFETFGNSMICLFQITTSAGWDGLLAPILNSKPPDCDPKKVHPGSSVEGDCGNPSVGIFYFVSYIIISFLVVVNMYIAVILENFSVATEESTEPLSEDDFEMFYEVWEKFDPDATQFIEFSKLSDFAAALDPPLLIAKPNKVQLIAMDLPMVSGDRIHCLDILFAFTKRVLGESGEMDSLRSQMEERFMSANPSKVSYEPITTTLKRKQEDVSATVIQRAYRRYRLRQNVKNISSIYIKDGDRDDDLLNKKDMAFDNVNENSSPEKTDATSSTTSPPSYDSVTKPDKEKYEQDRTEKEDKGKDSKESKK
# Method: as §1, §2, §3
Compound,Ratio 1.5:1.7 = Nav 1.5 potency (nM)/Nav1.7 potency (nM) [1],IC50 [2] [nM]
"C[C@H](c1ccccc1C1=CCNCC1)n1ncc2cc(S(=O)(=O)Nc3cccc(F)n3)c(F)cc21 [Ex-48, 6-fluoro-N-(6-fluoropyridin-2-yl)-1-{(1R)-1-[2-(1,2,3,6-tetrahydropyridin-4-yl)phenyl]ethyl}-1H-indazole-5-sulfonamide]",5,1120
"NC1CCc2cccc(Cn3ncc4cc(S(=O)(=O)Nc5nccs5)c(F)cc43)c2C1 (single isomer, unassigned) [Ex-26, (R or S)-1-[(7-amino-5,6,7,8-tetrahydronaphthalen-1-yl)methyl]-6-fluoro-N-1,3-thiazol-2-yl-1H-indazole-5-sulfonamide]",3231,5
"NCC(F)c1ccccc1Cn1ncc2cc(S(=O)(=O)Nc3cccc(F)n3)c(F)cc21 (stereo not drawn) [Ex-38, 1-[2-(2-amino-1-fluoroethyl)benzyl]-6-fluoro-N-(6-fluoropyridin-2-yl)-1H-indazole-5-sulfonamide]",162,185
"NCCCc1ccccc1Cn1ncc2cc(S(=O)(=O)Nc3cccc(F)n3)c(F)cc21 [Ex-32, 1-[2-(3-amino-propyl)benzyl]-6-fluoro-N-(6-fluoropyridin-2-yl)-1H-indazole-5-sulfonamide]",50,64
"C[C@H](c1ccccc1C#C[C@H]1CCCC[C@H]1N)n1ncc2cc(S(=O)(=O)Nc3cccc(F)n3)c(F)cc21 [Ex-50, 1-[(1R)-1-(2-{[(1R,2R)-2-amino-cyclohexyl]ethynyl}phenyl)ethyl]-6-fluoro-N-(6-fluoropyridin-2-yl)-1H-indazole-5-sulfonamide]",17,689
"C[C@H](c1ccccc1C1CCNCC1)n1ncc2cc(S(=O)(=O)Nc3cccc(F)n3)c(F)cc21 [Ex-43, 6-fluoro-N-(6-fluoropyridin-2-yl)-1-[(1R)-1-(2-piperidin-4-ylphenyl)ethyl]-1H-indazole-5-sulfonamide]",16,584
"C[C@H](c1ccccc1C#CCN)n1ncc2cc(S(=O)(=O)Nc3cccc(F)n3)c(F)cc21 [Ex-46, 1-{(1R)-1-[2-(3-aminoprop-1-yn-1-yl)phenyl]ethyl}-6-fluoro-N-(6-fluoropyridin-2-yl)-1H-indazole-5-sulfonamide]",41,423
"C[C@H](c1cccc2c1CNCC2)n1ncc2cc(S(=O)(=O)Nc3ncc(Cl)s3)c(F)cc21 [Ex-54, N-(5-chloro-1,3-thiazol-2-yl)-6-fluoro-1-[(1R)-1-(1,2,3,4-tetrahydroisoquinolin-8-yl)ethyl]-1H-indazole-5-sulfonamide]",50,137
"NCC#Cc1ccccc1Cn1ncc2cc(S(=O)(=O)Nc3nccs3)c(F)cc21 [Ex-29, 1-[2-(3-aminoprop-1-yn-1-yl)benzyl]-6-fluoro-N-1,3-thiazol-2-yl-1H-indazole-5-sulfonamide]",302,89
"C[C@H](c1ccccc1C1CNC1)n1ncc2cc(S(=O)(=O)Nc3cccc(F)n3)c(F)cc21 [Ex-40, 1-[(1R)-1-(2-azetidin-3-ylphenyl)ethyl]-6-fluoro-N-(6-fluoropyridin-2-yl)-1H-indazole-5-sulfonamide]",11,775
"NC1CCc2cccc(Cn3ncc4cc(S(=O)(=O)Nc5ncc(Cl)s5)c(F)cc43)c2C1 (stereo not drawn) [Ex-53, 1-[(7-amino-5,6,7,8-tetrahydronaphthalen-1-yl)methyl]-N-(5-chloro-1,3-thiazol-2-yl)-6-fluoro-1H-indazole-5-sulfonamide]",1193,8
"C[C@H](c1ccccc1C#C[C@@H]1CCCC[C@@H]1N)n1ncc2cc(S(=O)(=O)Nc3cccc(F)n3)c(F)cc21 [Ex-47, 1-[(1R)-1-(2-{[(1S,2S)-2-amino-cyclohexyl]ethynyl}phenyl)ethyl]-6-fluoro-N-(6-fluoropyridin-2-yl)-1H-indazole-5-sulfonamide]",15,546
"C[C@H](c1cccc2c1CNCC2)n1ncc2cc(S(=O)(=O)Nc3cccc(F)n3)c(F)cc21 [Ex-37, 6-fluoro-N-(6-fluoropyridin-2-yl)-1-[(1R)-1-(1,2,3,4-tetrahydroisoquinolin-8-yl)ethyl]-1H-indazole-5-sulfonamide]",64,372
"O=S(=O)(Nc1cccc(F)n1)c1cc2cnn(Cc3cccc4c3CNCC4F)c2cc1F (stereo not drawn) [Ex-49, 6-fluoro-N-(6-fluoropyridin-2-yl)-1-[(4-fluoro-1,2,3,4-tetrahydro-isoquinolin-8-yl)methyl]-1H-indazole-5-sulfonamide]",45,661
"NCC#Cc1ccccc1Cn1ncc2cc(S(=O)(=O)Nc3cccc(F)n3)c(F)cc21 [Ex-44, 1-[2-(3-aminoprop-1-yn-1-yl)benzyl]-6-fluoro-N-(6-fluoropyridin-2-yl)-1H-indazole-5-sulfonamide]",10,2530
"C[C@H](c1ccccc1CCCN)n1ncc2cc(S(=O)(=O)Nc3cccc(F)n3)c(F)cc21 [Ex-33, 1-{(1R)-1-[2-(3-amino-propyl)phenyl]ethyl}-6-fluoro-N-(6-fluoropyridin-2-yl)-1H-indazole-5-sulfonamide]",228,381
"NCCCc1ccccc1Cn1ncc2cc(S(=O)(=O)Nc3nccs3)c(F)cc21 [Ex-27, 1-[2-(3-aminopropyl)benzyl]-6-fluoro-N-1,3-thiazol-2-yl-1H-indazole-5-sulfonamide]",48,5
"C[C@H](c1cccc2c1CNCC2)n1ncc2cc(S(=O)(=O)Nc3nccs3)c(F)cc21 [Ex-28, 6-fluoro-1-[(1R)-1-(1,2,3,4-tetrahydroisoquinolin-8-yl)ethyl]-N-1,3-thiazol-2-yl-1H-indazole-5-sulfonamide]",870,25
"C[C@H](c1ccccc1C#CCN)n1ncc2cc(S(=O)(=O)Nc3ncc(Cl)s3)c(F)cc21 [Ex-56, 1-{(1R)-1-[2-(3-aminoprop-1-yn-1-yl)phenyl]ethyl}-N-(5-chloro-1,3-thiazol-2-yl)-6-fluoro-1H-indazole-5-sulfonamide]",39,244
"O=S(=O)(Nc1cccc(F)n1)c1cc2cnn(Cc3cccc4c3CNC4)c2cc1F [Ex-42, 1-(2,3-dihydro-1H-isoindol-4-ylmethyl)-6-fluoro-N-(6-fluoropyridin-2-yl)-1H-indazole-5-sulfonamide]",36,825
"NC1CCc2cccc(Cn3ncc4cc(S(=O)(=O)Nc5cccc(F)n5)c(F)cc43)c2C1 (single isomer, unassigned) [Ex-31, (R or S)-1-[(7-amino-5,6,7,8-tetrahydronaphthalen-1-yl)methyl]-6-fluoro-N-(6-fluoropyridin-2-yl)-1H-indazole-5-sulfonamide]",772,56
"NC1Cc2cccc(Cn3ncc4cc(S(=O)(=O)Nc5cccc(F)n5)c(F)cc43)c2C1 (stereo not drawn) [Ex-39, 1-[(2-amino-2,3-dihydro-1H-inden-4-yl)methyl]-6-fluoro-N-(6-fluoropyridin-2-yl)-1H-indazole-5-sulfonamide]",129,232
"NCc1ccccc1Cn1ncc2cc(S(=O)(=O)Nc3cccc(F)n3)c(F)cc21 [Ex-35, 1-[2-(aminomethyl)benzyl]-6-fluoro-N-(6-fluoropyridin-2-yl)-1H-indazole-5-sulfonamide]",53,568
"O=S(=O)(Nc1nccs1)c1cc2cnn(Cc3ccccc3C3=CCNCC3)c2cc1F [Ex-30, 6-fluoro-1-[2-(1,2,3,6-tetrahydropyridin-4-yl)benzyl]-N-1,3-thiazol-2-yl-1H-indazole-5-sulfonamide]",326,82
"O=S(=O)(Nc1cccc(F)n1)c1cc2cnn(Cc3ccccc3I)c2cc1F [Ex-41, 6-fluoro-N-(6-fluoropyridin-2-yl)-1-(2-iodobenzyl)-1H-indazole-5-sulfonamide]",7,1070
"Cc1cc2c(cnn2Cc2cccc3c2CC(N)CC3)cc1S(=O)(=O)Nc1cccc(F)n1 (stereo not drawn) [Ex-61, 1-[(7-amino-5,6,7,8-tetrahydronaphthalen-1-yl)methyl]-N-(6-fluoropyridin-2-yl)-6-methyl-1H-indazole-5-sulfonamide]",171,61
"CC(C)(N)CC#Cc1ccccc1Cn1ncc2cc(S(=O)(=O)Nc3cccc(F)n3)c(F)cc21 [Ex-45, 1-[2-(4-amino-4-methylpent-1-yn-1-yl)benzyl]-6-fluoro-N-(6-fluoropyridin-2-yl)-1H-indazole-5-sulfonamide]",18,2040
